Experimental findings from PMC5396162, “Self‐Assembled Bifunctional Peptide as Effective Drug Delivery Vector with Powerful Antitumor Activity” (Advanced Science, 2017) are described below.

The test system of data set [1] is A549 cells. Kind of data set: Microtubule formation (α-tubulin fluorescence microscopy). The class given is cell-based, human. The note with it: A549, 4 h. The source says: Agents targeting microtubules are often used in cancer therapy. The taxanes act to stabilize microtubules and dampen microtubule dynamics to prevent the normal formation of mitotic spindles.34 Both paclitaxel and DOC can bind to β‐tubulin in assembled tubulin, thereby reducing depolymerization and leading to cell death.35 Therefore, we examined the effects of DOC on microtubule formation and cell apoptosis on A549 cells. […] However, at 10 × 10^−9 M, DOC begins to arrest A549 cells by interfering with the assembling/disassembling microtubule spindle.
Figure 5 The effects of DOC on the microtubule formation on the A549 cell lines. A549 cells were seeded on coverslip and treated with docetaxel of indicated concentrations for 4 h. The microtubule was determined by fluorescence microscopy. The red indicates the α‐tubulin and the blue is the DAPI stain for DNA. Scale bar: 20 µm.
For the expression and localization of α‐tubulin, cells were incubated with the antibodies against α‐tubulin (Abcam, USA) followed by incubation with TRITC‐conjugated secondary antibodies. The images were obtained using a confocal microscope (DM6000 CS, Leica, Germany).

The test system of data set [2] is A549 cells. The data set can be described thus: Cell apoptosis assay (Annexin V-FITC/PI flow cytometry). The data set is classed as cell-based, human. The note with it: A549, 24 h. As for the experimental part:
Given the effectiveness of transporting hydrophobic drug‐DOC into A549 cancer cells by the bifunctional peptide NPs, we carried out the cytotoxicity experiments to further evaluate the anticancer activity of DOC/peptide NPs on A549 by Flow cytometry analysis. Flow cytometry analysis was performed to monitor the percentage of cell apoptosis after the cells being stained by Annexin V‐Fluorescein isothiocyanate/propidium iodide (Annexin V‐FITC/PI) apoptosis detection kit, and A549 cells incubated in media only were used as control (Figure 6 A). The percentage of apoptosis of A549 cells (early and late apoptosis) incubated for 24 h with DOC/peptide containing DOC 5 × 10^−9 and 10 × 10^−9 M were 11.56 ± 0.91% and 20.66 ± 1.89%, respectively. For free DOC, they were 8.87 ± 0.79% and 15.73 ± 0.56%, respectively. Obviously, DOC‐loaded bifunctional peptide NPs induced significant cell apoptosis.
To investigate the apoptotic effect of the DOC/peptide NPs, flow cytometry was performed using an ESP Elite flow cytometer (BeckmaneCoulter, Miami, FL, USA) with FITC‐conjugated Annexin V/propidium iodide (PI, BD PharMingen) staining as per the manufacturer's instructions. A549 cells cultured in 6‐well plates were treated with DOC/peptide NPs, free DOC, and blank peptide. […] Both early apoptotic (Annexin V‐positive, PI‐negative) and late apoptotic (Annexin V‐positive and PI‐positive) cells were measured.

Data set [3] is described as follows: In vitro release of DOC in PBS pH 7.4. The class given is physicochemical. The note with it: PBS pH 7.4, within 24 h. The source says:
The mass spectrum of the HRK‐19 peptide was shown in Figure S1 of the Supporting Information. And it can be seen the mass of HRK‐19 peptide was 1959.80 g mol^−1, which was consistent with the theoretical mass (1959.20 g mol^−1). The HRK‐19 peptide had ≥95% purity, as confirmed by analytical reversed‐phase (RP)‐high performance liquid chromatography (HPLC) (Figure S2, Supporting Information). As shown in Figure S3 of the Supporting Information, the HRK‐19 peptide contains no apparent secondary structure such as helix and Beta turn. […] To prepare a tumor‐targeting peptide, in this study, Asn‐Gly‐Arg‐Arg‐Gly‐Asp (NGRRGD) and three amino acids (HAV) were conjugated with apoptosis‐inducing peptide sequence AVPIAQK, forming bifunctional peptide (HRK‐19 peptide, HAVRNGRRGDGGAVPIAQK). As shown schematically in Figure 2 A, self‐assembly of the DOC/peptide NPs was prepared by the film dispersion method. […] It can be seen that the DL, and particle size increased with increase of drug/copolymer ratio in feed, whereas, the EE decreased accordingly. In consideration of DL and stability, the sample of S2 was chose for further applications and was characterized in detail. The DL and EE of DOC were 4.52 ± 0.18% and 90.50 ± 3.68%. […]

With `CC(=O)O[C@@]12CO[C@@H]1C[C@H](O)[C@@]1(C)C(=O)[C@H](O)C3=C(C)[C@@H](OC(=O)[C@H](O)[C@@H](NC(=O)OC(C)(C)C)c4ccccc4)C[C@@](O)([C@@H](OC(=O)c4ccccc4)[C@H]21)C3(C)C` [DOC, Docetaxel], the “Concentration at which DOC begins to arrest cells by interfering with the microtubule spindle” value in the data set on A549 cells [1] worked out at 10 nM. Also, the “Percentage of apoptosis (early and late apoptosis)” value in the data set on A549 cells [2] (DOC 5 × 10^−9 M) is 8.87 ± 0.79%; in the data set on A549 cells [2] (DOC 10 × 10^−9 M) it was 15.73 ± 0.56%. Also, the “Peak release of DOC, % of the total drug” value in data set [3] was 85.37 ± 1.83%.
